Test results published in PubChem BioAssay AID2060885 (Molecular Pharmacology Branch, DTP, NCI, 2025).
Where “and” joins values, the source holds several entries; their conditions need not be identical. Equal entries are not always repeated.

System: NCI-H23 complex spheroids with HUVEC/MSC, viability
Experiment: Anticancer human tumor NCI-H23 cell line growth inhibition [RAS];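 further: spheroids exposed to compound for 7 days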;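 on viability, T/C: 100% = DMSO vehicle control viability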
Conditions: for viability, T/C: stronger effect = lower value
In short: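 Multi-cell-type spheroids: tumor cells plus HUVEC endothelial cells and mesenchymal stem cells. RAS-pathway inhibitors were combined with targeted agents, each dosed in half-log steps down from clinical Cmax, or from 10 microM when Cmax was unknown.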

[1] = curve of first compound, second compound 0.0316 µM
[2] = curve of first compound, second compound 0.1 µM
[3] = curve of first compound, second compound 0.316 µM
[4] = curve of first compound, second compound 1 µM
[5] = second compound 0.0316 µM, first compound 0.0316 µM
[6] = second compound 0.0316 µM, first compound 0.1 µM
[7] = second compound 0.0316 µM, first compound 0.316 µM
[8] = second compound 0.0316 µM, first compound 1 µM
[9] = second compound 0.1 µM, first compound 0.0316 µM
[10] = second compound 0.1 µM, first compound 0.1 µM
[11] = second compound 0.1 µM, first compound 0.316 µM
[12] = second compound 0.1 µM, first compound 1 µM
[13] = second compound 0.316 µM, first compound 0.0316 µM
[14] = second compound 0.316 µM, first compound 0.1 µM
[15] = second compound 0.316 µM, first compound 0.316 µM
[16] = second compound 0.316 µM, first compound 1 µM
[17] = second compound 1 µM, first compound 0.0316 µM
[18] = second compound 1 µM, first compound 0.1 µM
[19] = second compound 1 µM, first compound 0.316 µM
[20] = second compound 1 µM, first compound 1 µM

CCC(CC)c1cc(NC2CCC(N)C2)n2nccc2n1 (stereo unspecified) + C=CC(=O)N1CCN(c2nc(OCC3CCCN3C)nc3c(F)c(-c4nc(N)cc(C)c4C(F)(F)F)c(Cl)cc23)C(C)C1
IC50 (curve of first compound, second compound 0.00316 µM): 1010 nM | IC50 (curve of first compound, second compound 0.01 µM): 557 nM | IC50 [1]: < 31.6 nM | IC50 [2]: < 31.6 nM | IC50 [3]: < 31.6 nM | IC50 [4]: < 31.6 nM | viability, T/C (second compound 0.00316 µM, first compound 0.0316 µM): 64.8% | viability, T/C (second compound 0.00316 µM, first compound 0.1 µM): 75.2% | viability, T/C (second compound 0.00316 µM, first compound 0.316 µM): 57.1% | viability, T/C (second compound 0.00316 µM, first compound 1 µM): 51.4% | viability, T/C (second compound 0.00316 µM, first compound 3.16 µM): 5.05% | viability, T/C (second compound 0.00316 µM, first compound 10 µM): 0.45% | viability, T/C (second compound 0.01 µM, first compound 0.0316 µM): 52.7% | viability, T/C (second compound 0.01 µM, first compound 0.1 µM): 62.7% | viability, T/C (second compound 0.01 µM, first compound 0.316 µM): 55.2% | viability, T/C (second compound 0.01 µM, first compound 1 µM): 43.2% | viability, T/C (second compound 0.01 µM, first compound 3.16 µM): 4.13% | viability, T/C (second compound 0.01 µM, first compound 10 µM): 0.6% | viability, T/C [5]: 44.7% | viability, T/C [6]: 47.1% | viability, T/C [7]: 42.9% | viability, T/C [8]: 36.5% | viability, T/C (second compound 0.0316 µM, first compound 3.16 µM): 3.39% | viability, T/C (second compound 0.0316 µM, first compound 10 µM): 0.5% | viability, T/C [9]: 39.3% | viability, T/C [10]: 50.3% | viability, T/C [11]: 38.7% | viability, T/C [12]: 36.5% | viability, T/C (second compound 0.1 µM, first compound 3.16 µM): 2.7% | viability, T/C (second compound 0.1 µM, first compound 10 µM): 0.48% | viability, T/C [13]: 36.2% | viability, T/C [14]: 37.8% | viability, T/C [15]: 39.9% | viability, T/C [16]: 36.7% | viability, T/C (second compound 0.316 µM, first compound 3.16 µM): 4.1% | viability, T/C (second compound 0.316 µM, first compound 10 µM): 0.41% | viability, T/C [17]: 34.6% | viability, T/C [18]: 42.8% | viability, T/C [19]: 41.1% | viability, T/C [20]: 38.5% | viability, T/C (second compound 1 µM, first compound 3.16 µM): 4.68% | viability, T/C (second compound 1 µM, first compound 10 µM): 0.53%

CCN1CCN(Cc2ccc(Nc3ncc(F)c(-c4cc(F)c5nc(C)n(C(C)C)c5c4)n3)nc2)CC1 + C#Cc1c(F)ccc2cc(O)cc(-c3ncc4c(N5CC6CCC(C5)N6)nc(OCC56CCCN5CC(F)C6)nc4c3F)c12
IC50 [1]: > 1000 nM | IC50 [2]: > 1000 nM | IC50 [3]: 89.5 nM | IC50 [4]: 56.2 nM | IC50 (curve of first compound, second compound 3.16 µM): 12.2 nM | IC50 (curve of first compound, second compound 10 µM): < 3.16 nM | viability, T/C (second compound 0.0316 µM, first compound 0.00316 µM): 105% | viability, T/C (second compound 0.0316 µM, first compound 0.01 µM): 102% | viability, T/C [5]: 79% | viability, T/C [6]: 61.8% | viability, T/C [7]: 61.2% | viability, T/C [8]: 60.9% | viability, T/C (second compound 0.1 µM, first compound 0.00316 µM): 104% | viability, T/C (second compound 0.1 µM, first compound 0.01 µM): 108% | viability, T/C [9]: 70% | viability, T/C [10]: 56.8% | viability, T/C [11]: 50.9% | viability, T/C [12]: 52.2% | viability, T/C (second compound 0.316 µM, first compound 0.00316 µM): 94.2% | viability, T/C (second compound 0.316 µM, first compound 0.01 µM): 109% | viability, T/C [13]: 71.8% | viability, T/C [14]: 51.4% | viability, T/C [15]: 48.4% | viability, T/C [16]: 43.3% | viability, T/C (second compound 1 µM, first compound 0.00316 µM): 81.2% | viability, T/C (second compound 1 µM, first compound 0.01 µM): 75% | viability, T/C [17]: 56.6% | viability, T/C [18]: 42.6% | viability, T/C [19]: 40.4% | viability, T/C [20]: 34.7% | viability, T/C (second compound 3.16 µM, first compound 0.00316 µM): 54.5% | viability, T/C (second compound 3.16 µM, first compound 0.01 µM): 53.3% | viability, T/C (second compound 3.16 µM, first compound 0.0316 µM): 37.9% | viability, T/C (second compound 3.16 µM, first compound 0.1 µM): 29% | viability, T/C (second compound 3.16 µM, first compound 0.316 µM): 30% | viability, T/C (second compound 3.16 µM, first compound 1 µM): 22.8% | viability, T/C (second compound 10 µM, first compound 0.00316 µM): 30.3% | viability, T/C (second compound 10 µM, first compound 0.01 µM): 39.5% | viability, T/C (second compound 10 µM, first compound 0.0316 µM): 26.5% | viability, T/C (second compound 10 µM, first compound 0.1 µM): 21.1% | viability, T/C (second compound 10 µM, first compound 0.316 µM): 22.2% | viability, T/C (second compound 10 µM, first compound 1 µM): 21%

C=CC(=O)Nc1cc(Nc2nccc(-c3cn(C)c4ccccc34)n2)c(OC)cc1N(C)CCN(C)C
viability, T/C (compound 0.00316 µM): 109% (2×) and 103% and 107% | viability, T/C (compound 0.01 µM): 105% [middle of 4 runs] | viability, T/C (compound 0.0316 µM): 102% [middle of 4 runs] | viability, T/C (compound 0.316 µM): 107% [middle of 4 runs] | IC50 (curve of compound): > 1000 nM

CC(C)NCC(C(=O)N1CCN(c2ncnc3c2C(C)CC3O)CC1)c1ccc(Cl)cc1 (stereo unspecified) + CCn1c(-c2cc(N3CCN(C)CC3)cnc2C(C)OC)c2c3cc(ccc31)-c1csc(n1)CC(NC(=O)C1CC1C)C(=O)N1CCCC(N1)C(=O)OCC(C)(C)C2
IC50 (curve of first compound, second compound 0.000949 µM): < 31.6 nM | IC50 (curve of first compound, second compound 0.003 µM): < 31.6 nM | IC50 (curve of first compound, second compound 0.00949 µM): < 31.6 nM | IC50 (curve of first compound, second compound 0.03 µM): < 31.6 nM | IC50 (curve of first compound, second compound 0.0949 µM): < 31.6 nM | IC50 (curve of first compound, second compound 0.3 µM): < 31.6 nM | viability, T/C (second compound 0.000949 µM, first compound 0.0316 µM): 44% | viability, T/C (second compound 0.000949 µM, first compound 0.1 µM): 47.4% | viability, T/C (second compound 0.000949 µM, first compound 0.316 µM): 32.9% | viability, T/C (second compound 0.000949 µM, first compound 1 µM): 34.7% | viability, T/C (second compound 0.000949 µM, first compound 3.16 µM): 26.2% | viability, T/C (second compound 0.000949 µM, first compound 10 µM): 15.2% | viability, T/C (second compound 0.003 µM, first compound 0.0316 µM): 37.9% | viability, T/C (second compound 0.003 µM, first compound 0.1 µM): 27.3% | viability, T/C (second compound 0.003 µM, first compound 0.316 µM): 24.2% | viability, T/C (second compound 0.003 µM, first compound 1 µM): 22.6% | viability, T/C (second compound 0.003 µM, first compound 3.16 µM): 22% | viability, T/C (second compound 0.003 µM, first compound 10 µM): 13.8% | viability, T/C (second compound 0.00949 µM, first compound 0.0316 µM): 30.8% | viability, T/C (second compound 0.00949 µM, first compound 0.1 µM): 31.7% | viability, T/C (second compound 0.00949 µM, first compound 0.316 µM): 30.4% | viability, T/C (second compound 0.00949 µM, first compound 1 µM): 22.2% | viability, T/C (second compound 0.00949 µM, first compound 3.16 µM): 17.1% | viability, T/C (second compound 0.00949 µM, first compound 10 µM): 10.4% | viability, T/C (second compound 0.03 µM, first compound 0.0316 µM): 29.5% | viability, T/C (second compound 0.03 µM, first compound 0.1 µM): 23.8% | viability, T/C (second compound 0.03 µM, first compound 0.316 µM): 21.5% | viability, T/C (second compound 0.03 µM, first compound 1 µM): 19.6% | viability, T/C (second compound 0.03 µM, first compound 3.16 µM): 12.1% | viability, T/C (second compound 0.03 µM, first compound 10 µM): 12.1% | viability, T/C (second compound 0.0949 µM, first compound 0.0316 µM): 18.6% | viability, T/C (second compound 0.0949 µM, first compound 0.1 µM): 18.6% | viability, T/C (second compound 0.0949 µM, first compound 0.316 µM): 17.8% | viability, T/C (second compound 0.0949 µM, first compound 1 µM): 17.4% | viability, T/C (second compound 0.0949 µM, first compound 3.16 µM): 10.3% | viability, T/C (second compound 0.0949 µM, first compound 10 µM): 9.96% | viability, T/C (second compound 0.3 µM, first compound 0.0316 µM): 18.1% | viability, T/C (second compound 0.3 µM, first compound 0.1 µM): 15.7% | viability, T/C (second compound 0.3 µM, first compound 0.316 µM): 14.9% | viability, T/C (second compound 0.3 µM, first compound 1 µM): 10.6% | viability, T/C (second compound 0.3 µM, first compound 3.16 µM): 9.62% | viability, T/C (second compound 0.3 µM, first compound 10 µM): 9.02%
